In general, inhibition refers to how much of the control response was suppressed.

Calls of active or inactive are those of the source. The calls are words filed in the database; no cut-off is given here.

The first assay addresses T1, Fatty-acid amide hydrolase 1 (Homo sapiens, UniProt O00519).
T1 sequence (O00519 whole entry): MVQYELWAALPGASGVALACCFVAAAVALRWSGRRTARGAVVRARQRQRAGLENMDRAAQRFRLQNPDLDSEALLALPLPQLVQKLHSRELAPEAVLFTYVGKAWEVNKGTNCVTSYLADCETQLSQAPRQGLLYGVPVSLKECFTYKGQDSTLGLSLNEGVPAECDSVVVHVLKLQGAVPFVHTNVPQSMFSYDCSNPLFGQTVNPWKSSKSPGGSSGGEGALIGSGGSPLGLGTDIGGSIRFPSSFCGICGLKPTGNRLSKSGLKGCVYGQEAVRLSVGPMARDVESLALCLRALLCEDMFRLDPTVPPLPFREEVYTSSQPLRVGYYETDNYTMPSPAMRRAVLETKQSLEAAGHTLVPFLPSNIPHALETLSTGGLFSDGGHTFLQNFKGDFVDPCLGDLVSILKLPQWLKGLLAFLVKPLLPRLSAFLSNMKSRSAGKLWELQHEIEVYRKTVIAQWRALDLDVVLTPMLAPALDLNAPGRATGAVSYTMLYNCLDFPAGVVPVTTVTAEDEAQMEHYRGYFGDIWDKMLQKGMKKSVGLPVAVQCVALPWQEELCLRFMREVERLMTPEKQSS
Briefly: Inhibition of human recombinant FAAH overexpressed in African green monkey COS7 cells using [3H]-anandamide as substrate preincubated for 10 mins before substrate addition measured after 10 mins by liquid scintillation counting analysis. Type of assay: cell-based, COS-7. The conditions noted are these: read-out: IC50.
Consider `COc1nn(C(C)c2ccc(CC(C)C)cc2)c(=O)o1` (racemic), for which the IC50 is 0.023 µM.
For the compound `COc1nn(Cc2ccc(-c3ccccc3)cc2)c(=O)o1`, the IC50 turned out to be 0.16 µM.
Take `COc1nn(Cc2cccc(Oc3ccccc3)c2)c(=O)o1`: the IC50 is 0.98 µM.
As to `COc1nn([C@H](C)c2ccc(N(c3ccccc3)c3ccccc3)cc2)c(=O)o1`, the IC50 was 6.3 µM.
With `COc1nn(C(C)c2cccc(Oc3ccccc3)c2)c(=O)o1` (stereo unspecified), the IC50 came out at 5.2 µM.
Consider `COc1nn(C(C)c2ccccc2)c(=O)o1` (stereo unspecified), for which the IC50 came to 6 µM.
Regarding `COc1nn([C@H](C)c2ccc(-c3ccccc3)cc2)c(=O)o1`, the IC50 was 3 µM.
Same read-out and setting: then `COc1nn(C(C)c2ccc(-c3ccccc3)cc2)c(=O)o1` (racemic), with 0.048 µM.
As to `COc1nn(C(C)c2ccc(Oc3ccccc3)cc2)c(=O)o1` (stereo unspecified), the IC50 is 0.034 µM.
On to `COc1nn(Cc2ccc(CC(C)C)cc2)c(=O)o1`, for which the IC50 was found to be 0.091 µM.

Staying with this assay, now noted: read-out: pIC50 (converted).
Take `COc1nn(C(C)c2ccc(CC(C)C)cc2)c(=O)o1` (racemic): the IC50 was 0.0229 µM.
Still for that read-out and setting: to `COc1nn(Cc2ccc(-c3ccccc3)cc2)c(=O)o1` belongs 0.162 µM.
As to `COc1nn(Cc2cccc(Oc3ccccc3)c2)c(=O)o1`, the IC50 is 0.977 µM.
For the compound `COc1nn([C@H](C)c2ccc(N(c3ccccc3)c3ccccc3)cc2)c(=O)o1`, the IC50 was 6.17 µM.
As for `COc1nn(C(C)c2cccc(Oc3ccccc3)c2)c(=O)o1` (stereo unspecified), the IC50 was 5.25 µM.
The same measure, in the same setting: to `COc1nn(C(C)c2ccccc2)c(=O)o1` (stereo unspecified) belongs 6.03 µM.
The same measure, in the same setting: to `COc1nn([C@H](C)c2ccc(-c3ccccc3)cc2)c(=O)o1` belongs 2.88 µM.
Turning to `COc1nn(C(C)c2ccc(-c3ccccc3)cc2)c(=O)o1` (racemic), the IC50 is 0.0468 µM.
With `COc1nn(C(C)c2ccc(Oc3ccccc3)cc2)c(=O)o1` (stereo unspecified), the IC50 is 0.0339 µM.
As for `COc1nn(Cc2ccc(CC(C)C)cc2)c(=O)o1`, the IC50 is 0.0891 µM.

The target of another assay is T2, Lysophosphatidylserine lipase ABHD12 (Homo sapiens) (UniProt Q8N2K0).
T2 sequence (whole entry): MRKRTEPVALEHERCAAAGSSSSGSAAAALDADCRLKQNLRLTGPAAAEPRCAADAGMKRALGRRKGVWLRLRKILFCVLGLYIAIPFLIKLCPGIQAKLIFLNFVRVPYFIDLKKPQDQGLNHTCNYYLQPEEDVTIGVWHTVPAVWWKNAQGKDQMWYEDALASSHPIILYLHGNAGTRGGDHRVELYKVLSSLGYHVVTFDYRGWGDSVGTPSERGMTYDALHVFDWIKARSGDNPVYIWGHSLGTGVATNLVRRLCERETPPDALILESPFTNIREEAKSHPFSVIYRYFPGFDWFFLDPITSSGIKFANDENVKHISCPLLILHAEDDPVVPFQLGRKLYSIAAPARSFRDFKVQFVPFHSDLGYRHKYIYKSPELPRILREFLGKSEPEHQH
Briefly: Inhibition of human ABHD12 overexpressed in HEK293 cells assessed as 2-AG hydrolysis at 1 uM by fluorescent glycerol assay.
Settings: not given
Format: cell-based.
`COc1nn(C(C)c2ccc(CC(C)C)cc2)c(=O)o1` (racemic): the inhibition entry is “inactive”.
As for `COc1nn(Cc2ccc(-c3ccccc3)cc2)c(=O)o1`, the inhibition entry was “inactive”.
Same read-out and setting: to `COc1nn(Cc2cccc(Oc3ccccc3)c2)c(=O)o1` belongs “inactive”.
The same measure, in the same setting: then `COc1nn([C@H](C)c2ccc(N(c3ccccc3)c3ccccc3)cc2)c(=O)o1`, with “inactive”; and `COc1nn(C(C)c2cccc(Oc3ccccc3)c2)c(=O)o1` (stereo unspecified), with “inactive”; and `COc1nn(C(C)c2ccccc2)c(=O)o1` (stereo unspecified), with “inactive”.
Still for that read-out and setting: to `COc1nn([C@H](C)c2ccc(-c3ccccc3)cc2)c(=O)o1` belongs “inactive”; to `COc1nn(C(C)c2ccc(-c3ccccc3)cc2)c(=O)o1` (racemic), “inactive”.
Turning to `COc1nn(C(C)c2ccc(Oc3ccccc3)cc2)c(=O)o1` (stereo unspecified), the inhibition result is “inactive”.
Regarding `COc1nn(Cc2ccc(CC(C)C)cc2)c(=O)o1`, the inhibition entry was “inactive”.

In a further assay the target is T3, Monoacylglycerol lipase ABHD6 (Homo sapiens) (UniProt Q9BV23).
T3 sequence (whole entry): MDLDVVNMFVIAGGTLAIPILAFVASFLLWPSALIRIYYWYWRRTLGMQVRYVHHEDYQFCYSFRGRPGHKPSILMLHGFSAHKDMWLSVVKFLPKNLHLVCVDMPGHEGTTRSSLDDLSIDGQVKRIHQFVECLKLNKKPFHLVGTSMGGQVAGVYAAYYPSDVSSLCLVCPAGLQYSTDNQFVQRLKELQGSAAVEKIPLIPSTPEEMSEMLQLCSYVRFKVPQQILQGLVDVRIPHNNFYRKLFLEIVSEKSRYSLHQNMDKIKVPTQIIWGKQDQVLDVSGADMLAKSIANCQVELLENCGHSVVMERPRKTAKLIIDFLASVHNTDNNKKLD
In words: Inhibition of human ABHD6 overexpressed in HEK293 cells assessed as 2-AG hydrolysis at 1 uM by fluorescent glycerol assay. Format: cell-based.
Settings: not given
`COc1nn(C(C)c2ccc(CC(C)C)cc2)c(=O)o1` (racemic): the inhibition entry is “inactive”.
Turning to `COc1nn(Cc2ccc(-c3ccccc3)cc2)c(=O)o1`, the inhibition entry was “inactive”.
For the compound `COc1nn(Cc2cccc(Oc3ccccc3)c2)c(=O)o1`, the inhibition result is “inactive”.
For the compound `COc1nn([C@H](C)c2ccc(N(c3ccccc3)c3ccccc3)cc2)c(=O)o1`, the inhibition entry is “inactive”.
For `COc1nn(C(C)c2cccc(Oc3ccccc3)c2)c(=O)o1` (stereo unspecified), the inhibition entry was “inactive”.
`COc1nn(C(C)c2ccccc2)c(=O)o1` (stereo unspecified): the inhibition result is “inactive”.
Regarding `COc1nn([C@H](C)c2ccc(-c3ccccc3)cc2)c(=O)o1`, the inhibition result is “inactive”.
Take `COc1nn(C(C)c2ccc(-c3ccccc3)cc2)c(=O)o1` (racemic): the inhibition result was “inactive”.
Regarding `COc1nn(C(C)c2ccc(Oc3ccccc3)cc2)c(=O)o1` (stereo unspecified), the inhibition result is “inactive”.
In the case of `COc1nn(Cc2ccc(CC(C)C)cc2)c(=O)o1`, the inhibition entry is “inactive”.

Another assay has as its target T4, Monoglyceride lipase (Homo sapiens) (UniProt Q99685).
T4 sequence (whole entry): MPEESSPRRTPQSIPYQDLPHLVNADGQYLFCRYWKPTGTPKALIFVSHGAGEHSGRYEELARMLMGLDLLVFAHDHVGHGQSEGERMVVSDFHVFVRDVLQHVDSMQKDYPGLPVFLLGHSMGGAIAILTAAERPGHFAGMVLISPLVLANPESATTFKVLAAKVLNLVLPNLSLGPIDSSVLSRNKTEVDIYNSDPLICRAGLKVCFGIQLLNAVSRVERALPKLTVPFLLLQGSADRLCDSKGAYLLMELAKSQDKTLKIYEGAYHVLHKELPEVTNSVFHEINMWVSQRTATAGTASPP
In words: Inhibition of human recombinant MAGL overexpressed in HEK cells using 2-AG as substrate at 10 uM preincubated for 10 mins before substrate addition measured after 10 mins by HPLC analysis relative to control. Format: cell-based. The conditions noted are these: HEK293.
As to `COc1nn(C(C)c2ccc(CC(C)C)cc2)c(=O)o1` (racemic), the inhibition is 48%.
Consider `COc1nn(Cc2cccc(Oc3ccccc3)c2)c(=O)o1`, for which the inhibition worked out at 15%.
Take `COc1nn(C(C)c2cccc(Oc3ccccc3)c2)c(=O)o1` (stereo unspecified): the inhibition worked out at 14%.
In the case of `COc1nn(C(C)c2ccccc2)c(=O)o1` (stereo unspecified), the inhibition result is “inactive”.
Still for that read-out and setting: to `COc1nn([C@H](C)c2ccc(-c3ccccc3)cc2)c(=O)o1` belongs 49%; to `COc1nn(C(C)c2ccc(-c3ccccc3)cc2)c(=O)o1` (racemic), 34%.

In the next assay the target is T5, Monoglyceride lipase (Homo sapiens, UniProt Q99685).
T5 sequence (Q99685 whole entry): T4 sequence (whole entry)
Briefly: Inhibition of human recombinant MAGL overexpressed in HEK cells using 2-AG as substrate preincubated for 10 mins before substrate addition measured after 10 mins by HPLC analysis. Format: cell-based, HEK293. The conditions noted are these: read-out: IC50.
On to `COc1nn(Cc2ccc(-c3ccccc3)cc2)c(=O)o1`, for which the IC50 stood at 1.6 µM.
The same measure, in the same setting: to `COc1nn([C@H](C)c2ccc(N(c3ccccc3)c3ccccc3)cc2)c(=O)o1` belongs 0.35 µM.
For the compound `COc1nn(C(C)c2ccc(Oc3ccccc3)cc2)c(=O)o1` (stereo unspecified), the IC50 came to 2 µM.
`COc1nn(Cc2ccc(CC(C)C)cc2)c(=O)o1`: the IC50 stood at 1.3 µM.

The assay is the same for the next values; noted with them: read-out: pIC50 (converted).
For `COc1nn([C@H](C)c2ccc(N(c3ccccc3)c3ccccc3)cc2)c(=O)o1`, the IC50 is 0.339 µM.

The record behind these values is ChEMBL document CHEMBL3085700 (J Med Chem, 2013).
